Results as given in publication PMC7679302 (Environmental Science and Pollution Research International, 2020).
Marks after values point to notes of the source that are not given here.

Experiments:
[1] = test system: Japanese medaka (Oryzias latipes); design: method as in Lalone et al. [2013]; conditions: 21-day exposure; ref Lalone et al. [2013]; cited from earlier work
[2] = test system: Daphnia magna; design: method as in Lalone et al. [2013]; conditions: 21-day exposure to as much as 500 μg/L; ref Lalone et al. [2013]; cited from earlier work
[3] = test system: fathead minnow (Pimephales promelas); design: method as in Lalone et al. [2013]; conditions: 21-day exposure; ref Lalone et al. [2013]; cited from earlier work
[4] = Acute 48 h aqueous toxicity test with glochidia (viability); type: in vivo, Lampsilis siliquoidea; conditions: Lampsilis siliquoidea, in vivo
Source text: (§1) Aqueous acute toxicity tests were based on the American Society for Testing and Materials (ASTM [2013]) protocols for conducting toxicity tests with early life stages of freshwater mussels. Gravid female L. siliquoidea were collected from an established reference site in the Maitland River (ON) and kept in ECCC’s Aquatic Life Research Facility (Canada Centre for Inland Waters, Burlington, ON). Glochidia were removed from gravid females and their viability (i.e., ability to close their valves) was assessed. Glochidia from a minimum of three gravid mussels whose glochidia exceeded 90% viability were pooled and exposed to a geometric series of nominal concentrations (0, 0.0025, 0.025, 0.25, 2.5, 25 mg/L) of either FIN or MGA plus a solvent control. Tests were conducted in 250-mL glass beakers (unaerated and unfed) with culture water. After 24 and 48 h of exposure, glochidia viability was assessed in a minimum of 100 glochidia per replicate (four replicates). Water samples were collected at the beginning and end of the tests, and frozen pending chemical analysis.

[5] = test system: Lampsilis siliquoidea glochidia; assay: as above; type: in vivo; conditions: Lampsilis siliquoidea, in vivo, 48 h
Source text: as §1

[6] = test system: mayflies Hexagenia spp.; assay: 21 d range-finding sediment test, mayflies; type: in vivo; conditions: n = 3
Procedure: (§2) Range-finding tests of 21 d were completed with juvenile mussels, amphipods and mayflies to assist with the selection of the concentrations to be used in final testing. Nominal concentrations in range-finding tests were 0.1, 1, 10, 100, and 1000 mg/kg, based on dry weight of sediment. Range-finding test conditions were identical to those described in the manuscript for chronic sediment tests with the exception of test duration.
At the end of the test, survival and wet weight of mayflies in each replicate were recorded.

[7] = test system: rainbow trout (Oncorhynchus mykiss); conditions: ref FDA-CDER [1996]; cited from earlier work
[8] = test system: Daphnia magna; conditions: ref FDA-CDER [1996]; cited from earlier work
[9] = test system: mayfly Hexagenia spp.; assay: Chronic 42-day sediment test with mayflies (survival, growth); conditions: measured, n = 6
Procedure: (§3) Nominal concentrations were 10, 30, 100, 300, and 1000 mg/kg for juvenile freshwater mussels and 3, 10, 30, 100, and 300 mg/kg for amphipods and mayflies, and were based on the results of range-finding tests (detailed in Supplementary Materials). […] For each PPCP, the concentration of solvent used was consistent across treatments.
(§4) The sediments were mixed for 24 h, left open in a fume hood for 3–5 days for the acetone to evaporate, and then stored at 4 °C until use. […] All beakers were aerated for 1 week under testing conditions prior to the addition of organisms, and throughout the tests. Duration of toxicity tests varied depending on the species and endpoint of interest (see below). Water quality parameters were collected for each test (Table S1).
(§5) Briefly, eggs of Hexagenia spp. […] Prior to testing, eggs were hatched and nymphs were grown in aerated 20-L aquaria containing culture sediment (depth: 2.5 cm) and culture water (depth: 10 cm) for 6 to 7 weeks.
(§6) Ten mayflies (5–8 mg wet weight) were added to each beaker (three replicates for each control and PPCP concentration). Two tests were conducted for each compound. […] At the end of the test, mayflies were removed and surviving animals from each of the three replicates were counted and weighed.

[10] = test system: amphipod Hyalella azteca; assay: Chronic 42-day sediment test with amphipods (survival, growth, reproduction, sex ratio); conditions: for Females (percent of surviving amphipods), mean (SEM) / Survival (percent of initial animals added), mean (SEM): n = 10
Procedure: Dechlorinated municipal tap water was used for cultures and toxicity tests. Both cultures and toxicity tests were held at 25 °C with a photoperiod of 16 h light:8 h dark, and amphipods were fed finely ground Tetra-Min fish food flakes (Tetra GMBH, Melle, Germany). Juvenile amphipods were removed weekly from breeding containers and used in toxicity tests.
Two tests were conducted for each compound. Amphipods were fed ground Tetra-Min twice per week during weeks 1 and 2, three times during week 3, and 5 mg three times per week during weeks 4 to 6. Surviving adults were counted, weighed as a group, and examined under a dissecting microscope to identify males (enlarged second gnathopods) and females, and the number of juveniles was recorded.

[11] = test system: mayfly Hexagenia spp.; conditions: Hexagenia spp. (mixture of H. rigida and H. limbata), in vivo, 42 days, pH 8.3
Procedure: as §3, §4, §5, §6

[12] = test system: juvenile Lampsilis siliquoidea; assay: Chronic 28-day spiked sediment test with juvenile mussels (survival, burial ability); conditions: for Burial ability (percent of surviving mussels), mean (SEM) / Survival (percent of initial animals added), mean (SEM): n = 5
Source text: Freshwater mussels (L. siliquoidea, 6–8 months old, ~ 1 cm in length) were purchased from Missouri State University (Springfield, MO, USA).

[13] = test system: amphipods H. azteca; assay: 21 d range-finding sediment test, amphipods; type: in vivo, Hyalella azteca; conditions: n = 3
Procedure: as §2
Amphipods were fed 2.5 mg Tetra-min twice per week during weeks one and two, and three times during week three. At the end of the test, amphipods were removed and the survivors were counted and weighed.

[14] = test system: juvenile mussels L. siliquoidea; assay: 21 d range-finding sediment test, juvenile mussels; type: in vivo; conditions: n = 3
Procedure: as §2
After 21 d, mussels were recovered and transferred to Petri dishes filled with clean sand and housed in large trays of aerated culture water to assess burial ability.

[15] = finasteride 1 mg/kg dw sediment (0.003 mg/L water), measured, 42-day
[16] = finasteride 4 mg/kg dw sediment (0.03 mg/L water), measured, 42-day
[17] = finasteride 11 mg/kg dw sediment (0.1 mg/L water), measured, 42-day
[18] = finasteride 35 mg/kg dw sediment (0.5 mg/L water), measured, 42-day
[19] = finasteride 96 mg/kg dw sediment (2 mg/L water), measured, 42-day
[20] = survival, growth, 42-day, dry weight sediment, measured
[21] = finasteride 4 mg/kg dw sediment (0.03 mg/L water), measured
[22] = finasteride 11 mg/kg dw sediment (0.1 mg/L water), measured
[23] = finasteride 35 mg/kg dw sediment (0.5 mg/L water), measured
[24] = finasteride 96 mg/kg dw sediment (2 mg/L water), measured
[25] = finasteride 430 mg/kg dw sediment (20 mg/L water), measured
[26] = survival, dry weight sediment, measured
[27] = survival, overlying water, measured

CC(=O)S[C@@H]1CC2=CC(=O)CC[C@]2(C)[C@H]2CC[C@@]3(C)[C@@H](CC[C@@]34CCC(=O)O4)[C@H]12 [spironolactone]
Concentration that reduced fecundity [1]: 50 ng/mL | Effect on reproduction [2]: no effect | Concentration that reduced fecundity [3]: 50 ng/mL

CC(C)(C)NC(=O)[C@H]1CC[C@H]2[C@@H]3CC[C@H]4NC(=O)C=C[C@]4(C)[C@H]3CC[C@]12C [Finasteride]
viability at 48 h, 0.003 mg/L [4]: 90% | viability at 48 h, 0.03 mg/L [4]: 87% | viability at 48 h, 0.3 mg/L [4]: 87% | viability at 48 h, 2.5 mg/L [4]: 88% | viability at 48 h, 23 mg/L [4]: 85% | ChV (geometric mean of NOEC and LOEC) [5]: 7.6 mg/L | LOEC [5]: 23 mg/L^a | NOEC [5]: 2.5 mg/L | Growth, mean (SEM) ([6]; 0.1 mg/kg dry weight nominal): 30 (0.5) mg wet weight | Survival (%), mean (SEM) ([6]; 0.1 mg/kg dry weight nominal): 100 (0.0) % | Growth, mean (SEM) ([6]; 1 mg/kg dry weight nominal): 30 (0.6) mg wet weight | Survival (%), mean (SEM) ([6]; 1 mg/kg dry weight nominal): 100 (0.0) % | Growth, mean (SEM) ([6]; 10 mg/kg dry weight nominal): 31 (0.3) mg wet weight | Survival (%), mean (SEM) ([6]; 10 mg/kg dry weight nominal): 100 (0.0) % | Growth, mean (SEM) ([6]; 100 mg/kg dry weight nominal): 29 (1.3) mg wet weight | Survival (%), mean (SEM) ([6]; 100 mg/kg dry weight nominal): 93 (3.3)^a % | Growth, mean (SEM) ([6]; 1000 mg/kg dry weight nominal): 4.5^a,^d (0.0) mg wet weight | Survival (%), mean (SEM) ([6]; 1000 mg/kg dry weight nominal): 3.3^a (3.3) % | 96-h LC50 [7]: 20 µg/mL | 96-h LC50 [8]: 21 µg/mL | Survival (percent of initial animals added), mean (SEM) ([9]; finasteride 1 mg/kg dw sediment (0.003 mg/L water)): 98 (1.7) % | Survival (percent of initial animals added), mean (SEM) ([9]; finasteride 4 mg/kg dw sediment (0.03 mg/L water)): 97 (2.1) % | Survival (percent of initial animals added), mean (SEM) ([9]; finasteride 11 mg/kg dw sediment (0.1 mg/L water)): 100 (0.0) % | Survival (percent of initial animals added), mean (SEM) ([9]; finasteride 35 mg/kg dw sediment (0.5 mg/L water)): 90 (2.6)^d,i % | Survival (percent of initial animals added), mean (SEM) ([9]; finasteride 96 mg/kg dw sediment (2 mg/L water)): 97 (2.1) % | Survival, % of pooled controls ([10]; 96 mg/kg (2 mg/L) FIN, 42-day): 65% | NOEC, overlying water ([10]; Hyalella azteca, in vivo, 42 days, pH 8.3): 0.5 mg/L | Females (percent of surviving amphipods), mean (SEM) [10, 15]: 57 (4.2) % | Survival (percent of initial animals added), mean (SEM) [10, 15]: 96 (1.4) % | Females (percent of surviving amphipods), mean (SEM) [10, 16]: 53 (3.0) % | Survival (percent of initial animals added), mean (SEM) [10, 16]: 93 (1.7) % | Females (percent of surviving amphipods), mean (SEM) [10, 17]: 50 (4.4) % | Survival (percent of initial animals added), mean (SEM) [10, 17]: 94 (1.7) % | Females (percent of surviving amphipods), mean (SEM) [10, 18]: 52 (2.7) % | Survival (percent of initial animals added), mean (SEM) [10, 18]: 92 (2.0) % | Females (percent of surviving amphipods), mean (SEM) [10, 19]: 69 (4.4)^d % | Survival (percent of initial animals added), mean (SEM) [10, 19]: 63 (8.3)^d % | ChV, sediment ([10]; survival, growth, 42-day, dry weight sediment): 58 mg/kg | LOEC, sediment [10, 20]: 96 mg/kg | NOEC, sediment [10, 20]: 35 mg/kg | ChV, overlying water ([10]; survival, growth, 42-day, overlying water): 1 mg/L | LOEC, overlying water ([10]; survival, growth, 42-day, overlying water, measured): 2 mg/L | ChV, overlying water [11]: 1 mg/L | LOEC, overlying water [11]: 2 mg/L | LOEC, sediment [11]: 96 mg/kg | NOEC, overlying water [11]: 0.5 mg/L | NOEC, sediment [11]: 35 mg/kg | Burial ability (percent of surviving mussels), mean (SEM) [12, 21]: 90 (5.5) % | Survival (percent of initial animals added), mean (SEM) [12, 21]: 94 (2.4) % | Burial ability (percent of surviving mussels), mean (SEM) [12, 22]: 98 (2.0) % | Survival (percent of initial animals added), mean (SEM) [12, 22]: 94 (4.0) % | Burial ability (percent of surviving mussels), mean (SEM) [12, 23]: 88 (4.0) % | Survival (percent of initial animals added), mean (SEM) [12, 23]: 98 (2.0) % | Burial ability (percent of surviving mussels), mean (SEM) [12, 24]: 82 (5.5) % | Survival (percent of initial animals added), mean (SEM) [12, 24]: 72 (8.6)^d % | Burial ability (percent of surviving mussels), mean (SEM) [12, 25]: 0 (0)^d % | Survival (percent of initial animals added), mean (SEM) [12, 25]: 10 (5.5)^d % | Overlying water concentration at which both survival and burial ability were reduced ([12]; measured): 20 mg/L | Sediment concentration at which both survival and burial ability were reduced ([12]; measured): 430 mg/kg | ChV, sediment ([12]; survival, dry weight sediment): 58 mg/kg | LOEC, sediment [12, 26]: 96 mg/kg | NOEC, sediment [12, 26]: 35 mg/kg | ChV, overlying water ([12]; survival, overlying water): 1 mg/L | LOEC, overlying water [12, 27]: 2 mg/L | NOEC, overlying water [12, 27]: 0.5 mg/L | Growth, mean (SEM) ([13]; 0.1 mg/kg dry weight nominal): 1.1 (0.12) mg wet weight | Survival (%), mean (SEM) ([13]; 0.1 mg/kg dry weight nominal): 100 (0.0) % | Growth, mean (SEM) ([13]; 1 mg/kg dry weight nominal): 1.1 (0.04) mg wet weight | Survival (%), mean (SEM) ([13]; 1 mg/kg dry weight nominal): 100 (0.0) % | Growth, mean (SEM) ([13]; 10 mg/kg dry weight nominal): 1.2 (0.05) mg wet weight | Survival (%), mean (SEM) ([13]; 10 mg/kg dry weight nominal): 100 (0.0) % | Growth, mean (SEM) ([13]; 100 mg/kg dry weight nominal): 0.79 (0.06) mg wet weight | Survival (%), mean (SEM) ([13]; 100 mg/kg dry weight nominal): 100 (0.0) % | Survival (%), mean (SEM) ([13]; 1000 mg/kg dry weight nominal): 0^a (0.0) % | Burial (%), mean (SEM) ([14]; 0.1 mg/kg dry weight nominal): 72 (6.3) % | Survival (%), mean (SEM) ([14]; 0.1 mg/kg dry weight nominal): 100 (0.0) % | Burial (%), mean (SEM) ([14]; 1 mg/kg dry weight nominal): 93 (3.3) % | Survival (%), mean (SEM) ([14]; 1 mg/kg dry weight nominal): 100 (0.0) % | Burial (%), mean (SEM) ([14]; 10 mg/kg dry weight nominal): 87 (6.7) % | Survival (%), mean (SEM) ([14]; 10 mg/kg dry weight nominal): 100 (0.0) % | Burial (%), mean (SEM) ([14]; 100 mg/kg dry weight nominal): 90 (0.0) % | Survival (%), mean (SEM) ([14]; 100 mg/kg dry weight nominal): 100 (0.0) % | Burial (%), mean (SEM) ([14]; 1000 mg/kg dry weight nominal): 77 (5.1) % | Survival (%), mean (SEM) ([14]; 1000 mg/kg dry weight nominal): 53 (6.7)^a %
